# Experimental data from patent US10925856B2, “Methods and compositions involving bucindolol for the treatment of atrial fibrillation” (priority 2018, dated 2021).
# Read-outs that look alike come from different tables or passages of the source.
# [1] = CYP2D6 Extensive/Ultra Metabolizer
# [2] = Drug Titration Period (first 42 days)
# [3] = treatment-emergent AE, total follow-up
smiles,measurement,setting,value
"COCCc1ccc(OCC(O)CNC(C)C)cc1 (stereo not drawn) [metoprolol, metoprolol succinate, reference compound]","HEADACHE, % of patients",[1],(4.5%)
same,"HEADACHE, number of patients",[1],5
same,"HYPOTENSION, % of patients",[1],(8.1%)
same,"HYPOTENSION, number of patients",[1],9
same,"IMMUNE SYSTEM DISORDERS, % of patients",[1],(0.9%)
same,"IMMUNE SYSTEM DISORDERS, number of patients",[1],1
same,"INFECTIONS AND INFESTATIONS, % of patients",[1],(20.7%)
same,"INFECTIONS AND INFESTATIONS, number of patients",[1],23
same,"INFLUENZA, % of patients",[1],(2.7%)
same,"INFLUENZA, number of patients",[1],3
same,"HEADACHE, % of patients",CYP2D6 Poor Metabolizer,(0.0%)
same,"HEADACHE, number of patients",CYP2D6 Poor Metabolizer,0
same,"INFECTIONS AND INFESTATIONS, % of patients",CYP2D6 Poor Metabolizer,(12.5%)
same,"INFECTIONS AND INFESTATIONS, number of patients",CYP2D6 Poor Metabolizer,1
same,"INFLUENZA, % of patients",CYP2D6 Poor Metabolizer,(0.0%)
same,"INFLUENZA, number of patients",CYP2D6 Poor Metabolizer,0
same,"UPPER RESPIRATORY TRACT INFECTION, % of patients",CYP2D6 Poor Metabolizer,(0.0%)
same,"UPPER RESPIRATORY TRACT INFECTION, number of patients",CYP2D6 Poor Metabolizer,0
same,"AC mortality or CV hosp or treatment disc. due to AE, patients N (%)",[2],6 (5%)
same,"All-cause mortality, patients N (%)",[2],1 (1%)
same,AEs leading to study withdrawal (excluding death),"GENETIC-AF, all randomized patients",1.5%
same,"Adverse event leading to death, patients N (%)",Total Study On-Drug Period,2.3%
same,"Adverse events leading to study withdrawal (excluding death), patients N (%)",Total Study On-Drug Period,2 (1.5%)
same,"Adverse event leading to death, patients N (%)","Total Study On-Drug Period, listed as Metoprolol",3 (2.3%)
same,AE SOC frequency: Cardiac Disorders,"human, in vivo",26.3%
same,AE SOC frequency: Eye Disorders,"human, in vivo",3.0%
same,AE SOC frequency: Gastrointestinal Disorders,"human, in vivo",18.0%
same,AE SOC frequency: Hepatobiliary Disorders,"human, in vivo",2.3%
same,AE SOC frequency: Infections and Infestations,"human, in vivo",21.8%
same,AE SOC frequency: Investigators,"human, in vivo",7.5%
same,AE SOC frequency: Metabolism and Nutrition Disorders,"human, in vivo",12.0%
same,AE SOC frequency: Musculoskeletal and Connective Tissue Disorders,"human, in vivo",15.0%
same,AE SOC frequency: Neoplasms Benign Malignant and Unspecified,"human, in vivo",6.8%
same,AE SOC frequency: Renal and Urinary Disorders,"human, in vivo",9.8%
same,"AE SOC frequency: Respiratory, Thoracic and Mediastinal Disorders","human, in vivo",10.5%
same,AE frequency: arthralgia,"human, in vivo",3.8%
same,AE frequency: cardiac failure,"human, in vivo",3.8%
same,AE frequency: chronic kidney disease,"human, in vivo",0.8%
same,AE frequency: constipation,"human, in vivo",1.5%
same,AE frequency: epistaxis,"human, in vivo",0.0%
same,AE frequency: hematuria,"human, in vivo",0.0%
same,AE frequency: hypomagnesaemia,"human, in vivo",0.0%
same,AE frequency: hypotension,"human, in vivo",7.5%
same,AE frequency: pneumonia,"human, in vivo",0.8%
same,AE frequency: upper respiratory tract infection,"human, in vivo",4.5%
same,AEs leading to permanent study drug discontinuation,"human, in vivo",8.3%
same,AEs: Bradycardia,"human, in vivo",12.0%
same,AEs: Stroke (99% on OACs),"human, in vivo",0.0%
same,"Adverse event possible/probably related to study drug, patients N (%)","human, in vivo",40 (30.1%)
same,"Adverse events leading to permanent study drug discontinuation, patients N (%)","human, in vivo",11 (8.3%)
same,"Adverse events related to neoplasm, patients N (%)","human, in vivo",9 (6.8%)
same,"Any bradycardia event, % of patients","human, in vivo",(12%)
same,"Any bradycardia event, number of patients","human, in vivo",16
same,"Any bradycardia, % of patients","human, in vivo",(12%)
same,"Any bradycardia, number of patients","human, in vivo",16
same,"Any serious adverse event, % of patients","human, in vivo",(20%)
same,"Any serious adverse event, number of patients","human, in vivo",26
same,"Asymptomatic bradycardia event, % of patients","human, in vivo",(8%)
same,"Asymptomatic bradycardia event, number of patients","human, in vivo",10
same,"Asymptomatic bradycardia, % of patients","human, in vivo",(8%)
same,"Asymptomatic bradycardia, number of patients","human, in vivo",10
same,Bradycardia AEs,"human, in vivo",3 (38%)
same,"Bradycardia event leading to study drug discontinuation, % of patients","human, in vivo",(1%)
same,"Bradycardia event leading to study drug discontinuation, number of patients","human, in vivo",1
same,"Bradycardia event leading to study drug dose interruption, % of patients","human, in vivo",(2%)
same,"Bradycardia event leading to study drug dose interruption, number of patients","human, in vivo",2
same,"Bradycardia event leading to study drug dose reduction, % of patients","human, in vivo",(8%)
same,"Bradycardia event leading to study drug dose reduction, number of patients","human, in vivo",11
same,"CAD, % of patients","human, in vivo",(1%)
same,"CAD, number of patients","human, in vivo",1
same,Cardiac AE rate (heart failure or bradycardia events),"human, in vivo",50%
same,"Cardiovascular serious adverse event, % of patients","human, in vivo",(10%)
same,"Cardiovascular serious adverse event, number of patients","human, in vivo",13
same,"Catheterization, % of patients","human, in vivo",(1%)
same,"Catheterization, number of patients","human, in vivo",1
same,"EPISTAXIS, % of patients","human, in vivo",(0.0%)
same,"EPISTAXIS, number of patients","human, in vivo",0
same,"HAEMATURIA, % of patients","human, in vivo",(0.0%)
same,"HAEMATURIA, number of patients","human, in vivo",0
same,"HYPOMAGNESAEMIA, % of patients","human, in vivo",(0.0%)
same,"HYPOMAGNESAEMIA, number of patients","human, in vivo",0
same,"Heart block (Mobitz I/II, 2:1, or 3rd degree), % of patients","human, in vivo",(0%)
same,"Heart block (Mobitz I/II, 2:1, or 3rd degree), number of patients","human, in vivo",0
same,"ICD Implantation, % of patients","human, in vivo",(5%)
same,"ICD Implantation, number of patients","human, in vivo",7
same,"Incidence of Cr > 3.0, % of patients","human, in vivo",(1%)
same,"Incidence of Cr > 3.0, number of patients","human, in vivo",1
same,"Incidence of bilirubin > 2.0, % of patients","human, in vivo",(2%)
same,"Incidence of bilirubin > 2.0, number of patients","human, in vivo",2
same,"Non-CNS Embolism, % of patients","human, in vivo",(0%)
same,"Non-CNS Embolism, number of patients","human, in vivo",0
same,"Pacemaker Implantation, % of patients","human, in vivo",(2%)
same,"Pacemaker Implantation, number of patients","human, in vivo",3
same,SAE SOC frequency: Infections and Infestations,"human, in vivo",3.0%
same,SAE SOC frequency: Renal and Urinary Disorders,"human, in vivo",1.5%
same,"SAE SOC frequency: Respiratory, Thoracic and Mediastinal Disorders","human, in vivo",1.5%
same,SAE frequency: Cardiac Failure,"human, in vivo",2.3%
same,SAE frequency: Cardiac Failure Congestive,"human, in vivo",5.3%
same,SAEs: Any cardiovascular event,"human, in vivo",9.8%
same,"Stroke, % of patients","human, in vivo",(0%)
same,"Stroke, number of patients","human, in vivo",0
same,"Symptomatic bradycardia event, % of patients","human, in vivo",(5%)
same,"Symptomatic bradycardia event, number of patients","human, in vivo",7
same,"Symptomatic bradycardia, % of patients","human, in vivo",(5%)
same,"Symptomatic bradycardia, number of patients","human, in vivo",7
same,"TIA, % of patients","human, in vivo",(1%)
same,"TIA, number of patients","human, in vivo",1
same,"UPPER RESPIRATORY TRACT INFECTION, % of patients","human, in vivo",(4.5%)
same,"UPPER RESPIRATORY TRACT INFECTION, number of patients","human, in vivo",5
same,"All-cause hospitalization, patients N (%)","human, in vivo, 42 days",9 (7%)
same,"Any serious adverse event, patients N (%)","human, in vivo, 42 days",10 (8%)
same,"Asymptomatic bradycardia, patients N (%)","human, in vivo, 42 days",4 (3%)
same,"Cardiovascular hospitalization, patients N (%)","human, in vivo, 42 days",4 (3%)
same,"Heart failure hospitalization, patients N (%)","human, in vivo, 42 days",4 (3%)
same,"Symptomatic bradycardia, patients N (%)","human, in vivo, 42 days",3 (2%)
same,"Treatment-related cardiovascular serious adverse event, patients N (%)","human, in vivo, 42 days",0 (0%)
same,"Treatment-related serious adverse event, patients N (%)","human, in vivo, 42 days",0 (0%)
same,"Ablation, % of patients",in vivo,(14%)
same,"Ablation, number of patients",in vivo,18
same,"Additional ECV After Successful SR, % of patients",in vivo,(23%)
same,"Additional ECV After Successful SR, number of patients",in vivo,30
same,"Anti-Arrhythmic Therapy, % of patients",in vivo,(33%)
same,"Anti-Arrhythmic Therapy, number of patients",in vivo,44
same,"Appropriate Firing of on ICD, % of patients",in vivo,(1%)
same,"Appropriate Firing of on ICD, number of patients",in vivo,1
same,"Rate Control Therapy, % of patients",in vivo,(11%)
same,"Rate Control Therapy, number of patients",in vivo,15
same,"TIA, patients",in vivo,One
same,"HEADACHE, % of patients",[3],(3.8%)
same,"HEADACHE, number of patients",[3],5
same,"INFECTIONS AND INFESTATIONS, % of patients",[3],(21.8%)
same,"INFECTIONS AND INFESTATIONS, number of patients",[3],29
same,"INFLUENZA, % of patients",[3],(2.3%)
same,"INFLUENZA, number of patients",[3],3
same,"UPPER RESPIRATORY TRACT INFECTION, % of patients",[3],(4.5%)
same,"UPPER RESPIRATORY TRACT INFECTION, number of patients",[3],6
same,"INFECTIONS AND INFESTATIONS, % of patients",treatment-emergent serious AE,(3.0%)
same,"INFECTIONS AND INFESTATIONS, number of patients",treatment-emergent serious AE,4
